Data taken from patent publication US7812042B2, “Pharmaceutical compositions and therapeutic applications for the use of a novel vitamin B12 derivative, N-acetyl-L-cysteinylcobalamin” (priority 2006, dated 2010).
Several values for one entry are separate records, joined by “and”; a condition that tells them apart may be missing. Equal values may be shown once.

Columns and labels:
SK-HEP-1 cells [1] = experiment: Protection of endothelial cells from homocysteine-induced cell death (MTS assay, absorbance at 490 nm; includes comparison of NACCbl, NAC, cyanocobalamin+NAC, free thiols, other cobalamins, folate); format: cell-based, Human; settings: for Absorbance at 490 nm (n = 6): replicates Y1-Y6
Description: The effect of a constant concentration of NACCbl and GSCbl to protect cells against variable concentrations of homocysteine was assessed. […] Cell viability was determined by MTS® assay. Data shown in FIG. 4 are representative of means ±SE of 6 independent samples. FIG. 4 illustrates that NACCbl (▪) and GSCbl (▴) protect endothelial cells from the effect of homocysteine. […] Cell viability was determined by MTS® assay. […] There was a decrease in protection as homocysteine concentration increased, but there was still ˜60% survival at 50 μM homocysteine.
The data was normalized (log 2 and log 10) as shown in FIGS. 16 and 17 and Tables 16 and 17, respectively, below.

SK-HEP-1 cells [2] = experiment: NACCbl protection from homocysteine with Hsp32/Hsp70 inhibited by Sn(IX) protoporphyrin, quercitin or siRNA (MTS assay); format: cell-based, Human; settings: for cell viability (MTS), raw readings (FIG. 11): NACCbl 30 μM pre-treatment two hours with/without Sn(IX)PP, quercetin, replicates 1-6
Description: siRNAs for human HO-1 were synthesised in 2′-deprotected, duplexed, desalted and purified form by Dharmacon Research Inc., published sequences from Zhang et al., (Zhang, Shan et al. 2004). Human Hsp70 primers were from proprietary sequences, and all control non-targeting primer sequences were also synthesised by Dharmacon Research Inc.
Transfection was optimised using a standard siControl Tox protocol. All transfection experiments included non-targeted siRNA.
Cells were trypsinized and plated into 12- or 96-well plates at cell density of 2×10^5, then incubated for 24 hours until adherent. Complexed siRNA and transfection agent at 100 nm was added directly to each experimental well. Plates were incubated at 37° C. for 32.5 hours for mRNA gene analysis experiments or 72 hours for protein analysis by Western Blot.
Complexed siRNA and transfection agent was added to each well of either 12- or 96-well plates. Cells were then trypsinized and added directly into each test well at cell density of 2×10^5. Plates were incubated at 37° C. for 32.5 hours for mRNA gene analysis experiments or 72 hours for protein analysis by Western Blot.
Hsp32 was inhibited using either Sn (IX) protoporhyrin or using an siRNA which specifically knocks out Hsp32. Hsp70 was inhibited using quercitin or using an siRNA which specifically knocks out Hsp70. In addition, two methods were used to inhibit both Hsp32 and Hsp70: chemically Sn (IX) protoporphyrin plus quercitin was used; and then, directly, a combination of the siRNA for both genes was used simultaneously.

SK-HEP-1 cells [3] = experiment: Protection from apoptosis induced by homocysteine (Caspase-3 activity); format: cell-based, Human; settings: 30 μM pre-treatment two hours, then 30 μM homocysteine two hours
Description: Caspase 3 is activated when cells undergo apoptosis. Caspase-3 assay is a standard for apoptosis assay. Homocysteine is a known inducer of apoptosis. Cells were cultured in 96-well plates for 24 hours and then treated with reagents under test conditions. Cytotoxic agents, H2O2 and etoposide were added to negative control wells. The assay was performed according to the manufacturer's protocol, as follows: Cells were re-suspended in 100 μl of clear media and 50 μl of Caspase-3 substrate solution was immediately added to each test well. […] Cell viability was determined by MTS® assay. […] Cell viability was determined by MTS® assay.

[4] = Decomposition of thiolatocobalamins in PBS at 37° C. monitored by UV/Vis spectrophotometry; format: physicochemical; settings: decomposition in PBS at 37° C.
Description: The decomposition of GSCbl, NACCbl, and HcyCbl in PBS at 37° C. was monitored by UV/Vis spectrophotometry.

With `CC(=O)NC(C[S-])C(=O)O.CC1=C2N=C(C=C3N=C(C(C)=C4[N-]C(C(CC(N)=O)C4(C)CCC(=O)NCC(C)OP(=O)([O-])OC4C(CO)OC(n5cnc6cc(C)c(C)cc65)C4O)C4(C)N=C1C(CCC(N)=O)C4(C)CC(N)=O)C(CCC(N)=O)C3(C)C)C(CCC(N)=O)C2(C)CC(N)=O.[Co+3]` [NACCbl, N-acetyl-L-cysteinylcobalamin] the “Absorbance at 490 nm, Mean (n = 6)” value (SK-HEP-1 cells [1]; Conc. Hcy 25.000 (μM), NACCbl 30 μM, NAC 75 μM) was 1.954, the “Absorbance at 490 nm, Mean (n = 6)” value (SK-HEP-1 cells [1]; Conc. Hcy 50.000 (μM), NACCbl 30 μM, NAC 75 μM) was 1.786 and the “Absorbance at 490 nm, Mean (n = 6)” value (SK-HEP-1 cells [1]; Conc. Hcy 100.000 (μM), NACCbl 30 μM, NAC 75 μM) was 1.685. For the same compound, the “Absorbance at 490 nm, Mean (n = 6)” value (SK-HEP-1 cells [1]; Conc. Hcy 200.000 (μM), NACCbl 30 μM, NAC 75 μM) was 1.393, the “Absorbance at 490 nm (n = 6)” value (SK-HEP-1 cells [1]; Conc. of Hcy 0.000, NACCbl 30 μM, NAC 75 μM) was 2.885 and 2.698 and 2.821 and 2.771 and 2.691 and 2.700 and the “Absorbance at 490 nm (n = 6)” value (SK-HEP-1 cells [1]; Conc. of Hcy 1.780, NACCbl 30 μM, NAC 75 μM) was 2.647 and 2.551 and 2.789 and 2.890 and 2.549 and 2.611. The “Absorbance at 490 nm (n = 6)” value (SK-HEP-1 cells [1]; Conc. of Hcy 3.125, NACCbl 30 μM) was 2.453 and 2.338 and 2.360 and 2.317 and 2.418 and 2.535, the “Absorbance at 490 nm (n = 6)” value (SK-HEP-1 cells [1]; Conc. of Hcy 6.250, NACCbl 30 μM, NAC 75 μM) was 2.410 and 2.400 and 2.322 and 2.201 and 2.115 and 2.187 and the “Absorbance at 490 nm (n = 6)” value (SK-HEP-1 cells [1]; Conc. of Hcy 12.500, NACCbl 30 μM, NAC 75 μM) was 2.210 and 2.110 and 2.045 and 2.065 and 2.101 and 2.324. The “Absorbance at 490 nm (n = 6)” value (SK-HEP-1 cells [1]; Conc. of Hcy 25.000, NACCbl 30 μM, NAC 75 μM) was 2.100 and 2.190 and 1.879 and 1.937 and 1.779 and 1.837, the “Absorbance at 490 nm (n = 6)” value (SK-HEP-1 cells [1]; Conc. of Hcy 50.000, NACCbl 30 μM, NAC 75 μM) was 1.678 and 1.832 and 1.881 and 1.730 and 1.740 and 1.855 and the “Absorbance at 490 nm (n = 6)” value (SK-HEP-1 cells [1]; Conc. of Hcy 100.000, NACCbl 30 μM, NAC 75 μM) was 1.678 and 1.592 and 1.694 and 1.773 and 1.732 and 1.639. For the same compound, the “Absorbance at 490 nm (n = 6)” value (SK-HEP-1 cells [1]; Conc. of Hcy 200.000, NACCbl 30 μM, NAC 75 μM) was 1.378 and 1.167 and 1.330 and 1.456 and 1.491 and 1.537, the “protection against homocysteine-induced damage compared with free thiols” value (SK-HEP-1 cells [1]; Hcy 30 μM, NAC 45, GSH 100, NACCbl 12.5, GSCbl 15 μM, with or without folate 25 μM) was “superior to the free thiols” and the “protection compared with GSCbl (p<0.001)” value (SK-HEP-1 cells [1]; concentrations below 12.5 μM, 30 μM homocysteine 24 hours) was “significantly greater than that provided by GSCbl”. For the same compound, the “prevention of cell death compared with NAC and cyanocobalamin+NAC” value (SK-HEP-1 cells [1]; variable Hcy concentration, NACCbl 30 μM) was “superior to either NAC (75 μM) alone or in combination with CNCbl”, the survival (SK-HEP-1 cells [1]; ≧12.5 μM NACCbl 2 hours, then 30 μM homocysteine 24 hours) was 80% and the “cell viability (MTS), raw readings (FIG. 11)” value (from here on “cell viability (MTS)”) (SK-HEP-1 cells [2]; Hcy 0) was 2.885 and 2.698 and 2.821 and 2.771 and 2.691 and 2.7. The “cell viability (MTS)” value (SK-HEP-1 cells [2]; Hcy 1.78 (μM) two hours, where named) was 2.647 and 2.551 and 2.789 and 2.89 and 2.549 and 2.611, the “cell viability (MTS)” value (SK-HEP-1 cells [2]; Hcy 3.125 (μM) two hours, where named) was 2.453 and 2.338 and 2.36 and 2.317 and 2.418 and 2.535 and the “cell viability (MTS)” value (SK-HEP-1 cells [2]; Hcy 6.25 (μM) two hours, where named) was 2.41 and 2.4 and 2.322 and 2.201 and 2.115 and 2.187. For the same compound, the “cell viability (MTS)” value (SK-HEP-1 cells [2]; Hcy 12.5 (μM) two hours, where named) was 2.21 and 2.11 and 2.045 and 2.065 and 2.101 and 2.324, the “cell viability (MTS)” value (SK-HEP-1 cells [2]; Hcy 25 (μM) two hours, where named) was 2.1 and 2.19 and 1.879 and 1.937 and 1.779 and 1.837 and the “cell viability (MTS)” value (SK-HEP-1 cells [2]; Hcy 50 (μM) two hours, where named) was 1.678 and 1.832 and 1.881 and 1.73 and 1.74 and 1.855. The “cell viability (MTS)” value (SK-HEP-1 cells [2]; Hcy 100 (μM) two hours, where named) was 1.678 and 1.592 and 1.694 and 1.773 and 1.732 and 1.639, the “cell viability (MTS)” value (SK-HEP-1 cells [2]; Hcy 200 (μM) two hours, where named) was 1.378 and 1.167 and 1.33 and 1.456 and 1.491 and 1.537 and the “effect of inhibition of both Hsp32 and Hsp70 together on protection by NACCbl” value (SK-HEP-1 cells [2]; both methods (chemically and directly), NACCbl 30 μM) was “totally removed protection”. The “protection against apoptosis induced by homocysteine” value (SK-HEP-1 cells [3]) was “total protection” and the t1/2 [4] was “No decomposition within 20 hours”.
